Reference: PubChem BioAssay AID1963851 (Molecular Pharmacology Branch, DTP, NCI, 2024)

Test system: 188146-221-R-J1-PDC complex spheroid viability
Assay: Anticancer human tumor 188146-221-R-J1-PDC patient-derived colon adenocarcinoma cell line growth inhibition [POLQ]
Details: for IC50: curve of first compound; for viability, T/C: stronger effect = lower value
Method: Multicellular complex tumor spheroid response to Polymerase (POL) inhibitors (novobiocin, ART-558, RP6685) in combination with a variety of drugs and investigational agents in selected tumor cell lines
The POL inhibitors (novobiocin, ART-558, and RP6685) were evaluated both individually and in combination with standard of care and investigational anticancer small molecules within a complex spheroid model of solid tumors. . Complex spheroids include a stromal component modeled by human endothelial cells (HUVEC) and fibroblasts modeled by human mesenchymal stem cells (MSCs). The concentration ranges selected for each drug and investigational agent were based upon clinically achievable concentrations if the clinical Cmax of the agent was known.
Compounds. The drugs and investigational agents: novobiocin (NSC847541), ART-558 (NSC835418), RP-6685 (NSC848927), peposertib (NSC802822), ceralasertib (NSC780249), elimusertib (NSC800525), camonsertib (NSC841442), AZD-1390 (NSC803789), olaparib (NSC753686), talazoparib (NSC767125), rucaparib (NSC756644), sotorasib (NSC818433), MRTX-1133 (NSC836407), SN-38 (NSC673596), topotecan (NSC609699), epotoside (NSC141540), doxorubicin (NSC123127), gemcitabine (NSC613327), 5-fluorouracil (NSC19893), paclitaxel (NSC125973), vemurafenib (NSC761431), MSA-2 (NSC828583), SN-011 (NSC837082), adavosertib (NSC754352), prexasertib (NSC758257), carboplatin (NSC241240) and oxaliplatin (NSC266046), were obtained from the National Cancer Institute (NCI) Developmental Therapeutics Program Chemical Repository (21). The FDA-approved anticancer drug set is available from the Developmental Therapeutics Program at https://dtp.cancer.gov/organization/dscb/obtaining/. […] The stock solutions were prepared in dimethyl sulfoxide (DMSO, Sigma-Aldrich, St. Louis, MO, cat. D2650), except for the platinum compounds which were prepared in saline (Quality Biological, Gaithersburg, MD, cat. 114-055-101), at 800-fold the tested concentration and stored at -70 degrees C prior to their use. All drugs and investigational agents were tested over a range starting from a high concentration at or near the clinical Cmax and decreasing in half-log increments. If the clinical Cmax for an agent had not been determined, the highest concentration tested was 10 microM, except for SN-38, which was tested at a high concentration of 1 microM.
Cell Culture. All cells were maintained in an incubator at 37 degrees C and 5% CO2 with 95% humidity. The PDC lines were cultured according to standard operating procedures established by the NCI PDMR (https://pdmr.cancer.gov). Table 3 of the manuscript, lists the cell lines along with the number of the three cell types plated to form the mct-spheroids and media for tumor cell growth. After thawing, all PDC lines, except 997537-175-T-J1-PDC and 415267-285-R-J2-PDC, were cultured in Matrigel-coated flasks prepared with a working solution of 1X Ham's F-12 nutrient mix, without supplementation (Thermo Fisher Scientific, cat. 11765054), 100 U/mL penicillin-streptomycin (Thermo Fisher Scientific, cat. 15140122), and 2.5% Matrigel (Corning Inc., Corning, NY, cat. 354248) for the first three passages. The two PDC lines 997537-175-T-J1-PDC and 415267-285-R-J2-PDC were cultured on uncoated flasks. The 857933-349-R-J2-PDC line was cultured in 6C/Colon 1B media containing advanced DMEM/F-12 (Thermo Fisher Scientific, cat. 12634028), 10 mM HEPES (Thermo Fisher Scientific, cat. 15630080), 1X GlutaMAX supplement (Thermo Fisher Scientific, cat. 35050061), 0.1 mg/mL primocin (InvivoGen, San Diego, CA, cat. ant-pm-2), 10% defined fetal bovine serum, heat inactivated (HyClone Laboratories Inc., Logan, UT, cat. SH30070.03HI), 50% L-WRN conditioned media (ATCC, cat. CRL-3276), 1.25 mM N-Acetyl-L-cysteine (Sigma-Aldrich, cat. A9165), 10 mM nicotinamide (Sigma-Aldrich, cat. N0636), 1X B-27 supplement (Thermo Fisher Scientific, cat. 17504044), 1X N-2 supplement (Thermo Fisher Scientific, cat. […]

[1] = second compound 0.0316 µM, first compound 0.0316 µM
[2] = second compound 0.0316 µM, first compound 0.1 µM
[3] = second compound 0.0316 µM, first compound 0.316 µM
[4] = second compound 0.0316 µM, first compound 1 µM
[5] = second compound 0.1 µM, first compound 0.0316 µM
[6] = second compound 0.1 µM, first compound 0.1 µM
[7] = second compound 0.1 µM, first compound 0.316 µM
[8] = second compound 0.1 µM, first compound 1 µM
[9] = second compound 0.316 µM, first compound 0.0316 µM
[10] = second compound 0.316 µM, first compound 0.1 µM
[11] = second compound 0.316 µM, first compound 0.316 µM
[12] = second compound 0.316 µM, first compound 1 µM
[13] = second compound 1 µM, first compound 0.0316 µM
[14] = second compound 1 µM, first compound 0.1 µM
[15] = second compound 1 µM, first compound 0.316 µM
[16] = second compound 1 µM, first compound 1 µM
[17] = second compound 3.16 µM, first compound 0.0316 µM
[18] = second compound 3.16 µM, first compound 0.1 µM
[19] = second compound 3.16 µM, first compound 0.316 µM
[20] = second compound 3.16 µM, first compound 1 µM
[21] = second compound 10 µM, first compound 0.0316 µM
[22] = second compound 10 µM, first compound 0.1 µM
[23] = second compound 10 µM, first compound 0.316 µM
[24] = second compound 10 µM, first compound 1 µM
[25] = second compound 0.0316 µM, first compound 3.16 µM
[26] = second compound 0.0316 µM, first compound 10 µM
[27] = second compound 0.1 µM, first compound 3.16 µM
[28] = second compound 0.1 µM, first compound 10 µM
[29] = second compound 0.316 µM, first compound 3.16 µM
[30] = second compound 0.316 µM, first compound 10 µM
[31] = second compound 1 µM, first compound 3.16 µM
[32] = second compound 1 µM, first compound 10 µM
[33] = second compound 3.16 µM, first compound 3.16 µM
[34] = second compound 3.16 µM, first compound 10 µM
[35] = second compound 10 µM, first compound 3.16 µM
[36] = second compound 10 µM, first compound 10 µM
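Further: spheroids exposed to compounds for seven days.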
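Wherever viability, T/C is given: 100% = DMSO vehicle control viability.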

Compound: CCc1c2c(nc3ccc(O)cc13)-c1cc3c(c(=O)n1C2)COC(=O)[C@]3(O)CC + COC1C(OC(N)=O)C(O)C(Oc2ccc3c(O)c(NC(=O)c4ccc(O)c(CC=C(C)C)c4)c(=O)oc3c2C)OC1(C)C
- IC50 (second compound 0.0316 µM): 25.9 nM
- IC50 (second compound 0.1 µM): 26.8 nM
- IC50 (second compound 0.316 µM): 24 nM
- IC50 (second compound 1 µM): 27 nM
- IC50 (second compound 3.16 µM): 21.1 nM
- IC50 (second compound 10 µM): 13.2 nM
- viability, T/C (second compound 0.0316 µM, first compound 0.00316 µM): 96.6%
- viability, T/C (second compound 0.0316 µM, first compound 0.01 µM): 83.1%
- viability, T/C [1]: 41%
- viability, T/C [2]: 20.6%
- viability, T/C [3]: 10.8%
- viability, T/C [4]: 7.12%
- viability, T/C (second compound 0.1 µM, first compound 0.00316 µM): 95.7%
- viability, T/C (second compound 0.1 µM, first compound 0.01 µM): 88%
- viability, T/C [5]: 42.5%
- viability, T/C [6]: 16.8%
- viability, T/C [7]: 8.86%
- viability, T/C [8]: 6.83%
- viability, T/C (second compound 0.316 µM, first compound 0.00316 µM): 87.1%
- viability, T/C (second compound 0.316 µM, first compound 0.01 µM): 88.6%
- viability, T/C [9]: 38%
- viability, T/C [10]: 14.2%
- viability, T/C [11]: 9.57%
- viability, T/C [12]: 7.85%
- viability, T/C (second compound 1 µM, first compound 0.00316 µM): 93.5%
- viability, T/C (second compound 1 µM, first compound 0.01 µM): 91.2%
- viability, T/C [13]: 42.9%
- viability, T/C [14]: 16.6%
- viability, T/C [15]: 11%
- viability, T/C [16]: 7.07%
- viability, T/C (second compound 3.16 µM, first compound 0.00316 µM): 94.3%
- viability, T/C (second compound 3.16 µM, first compound 0.01 µM): 79%
- viability, T/C [17]: 34%
- viability, T/C [18]: 13.3%
- viability, T/C [19]: 10.9%
- viability, T/C [20]: 6.97%
- viability, T/C (second compound 10 µM, first compound 0.00316 µM): 95.5%
- viability, T/C (second compound 10 µM, first compound 0.01 µM): 56.7%
- viability, T/C [21]: 28.6%
- viability, T/C [22]: 14.9%
- viability, T/C [23]: 9.1%
- viability, T/C [24]: 9.35%

Compound: C#Cc1c(F)ccc2cc(O)cc(-c3ncc4c(N5CC6CCC(C5)N6)nc(OCC56CCCN5CC(F)C6)nc4c3F)c12 (stereo unspecified) + Cc1cccc(N(C)C(=O)C2C(O)CCN2c2nc(C)cc(C(F)(F)F)c2C#N)c1
- IC50 (second compound 0.0316 µM): > 10000 nM
- IC50 (second compound 0.1 µM): > 10000 nM
- IC50 (second compound 0.316 µM): > 10000 nM
- IC50 (second compound 1 µM): > 10000 nM
- IC50 (second compound 3.16 µM): > 10000 nM
- IC50 (second compound 10 µM): > 10000 nM
- viability, T/C [1]: 104%
- viability, T/C [2]: 105%
- viability, T/C [3]: 104%
- viability, T/C [4]: 97.9%
- viability, T/C [25]: 88.6%
- viability, T/C [26]: 90.6%
- viability, T/C [5]: 101%
- viability, T/C [6]: 112%
- viability, T/C [7]: 101%
- viability, T/C [8]: 95.5%
- viability, T/C [27]: 96%
- viability, T/C [28]: 92.6%
- viability, T/C [9]: 108%
- viability, T/C [10]: 106%
- viability, T/C [11]: 96.9%
- viability, T/C [12]: 85.3%
- viability, T/C [29]: 93.2%
- viability, T/C [30]: 84.1%
- viability, T/C [13]: 111%
- viability, T/C [14]: 101%
- viability, T/C [15]: 94.9%
- viability, T/C [16]: 93.4%
- viability, T/C [31]: 89.8%
- viability, T/C [32]: 85.5%
- viability, T/C [17]: 99.7%
- viability, T/C [18]: 98.2%
- viability, T/C [19]: 96.8%
- viability, T/C [20]: 74.9%
- viability, T/C [33]: 95.8%
- viability, T/C [34]: 98.2%
- viability, T/C [21]: 107%
- viability, T/C [22]: 75%
- viability, T/C [23]: 99.8%
- viability, T/C [24]: 90%
- viability, T/C [35]: 88.6%
- viability, T/C [36]: 78.3%

Compound: O=c1[nH]cc(F)c(=O)[nH]1 + Cc1cccc(N(C)C(=O)C2C(O)CCN2c2nc(C)cc(C(F)(F)F)c2C#N)c1
- IC50 (second compound 0.0316 µM): 2440 nM
- IC50 (second compound 0.1 µM): 1380 nM
- IC50 (second compound 0.316 µM): 1820 nM
- IC50 (second compound 1 µM): 1680 nM
- IC50 (second compound 3.16 µM): 1340 nM
- IC50 (second compound 10 µM): 1690 nM
- viability, T/C [1]: 107%
- viability, T/C [2]: 91.7%
- viability, T/C [3]: 73.5%
- viability, T/C [4]: 57.7%
- viability, T/C [25]: 50.8%
- viability, T/C [26]: 34.5%
- viability, T/C [5]: 102%
- viability, T/C [6]: 96.7%
- viability, T/C [7]: 73.9%
- viability, T/C [8]: 52.6%
- viability, T/C [27]: 45%
- viability, T/C [28]: 37%
- viability, T/C [9]: 93%
- viability, T/C [10]: 87%
- viability, T/C [11]: 80%
- viability, T/C [12]: 57%
- viability, T/C [29]: 43.5%
- viability, T/C [30]: 34.9%
- viability, T/C [13]: 79.8%
- viability, T/C [14]: 84.6%
- viability, T/C [15]: 74.3%
- viability, T/C [16]: 57.1%
- viability, T/C [31]: 41.7%
- viability, T/C [32]: 37.5%
- viability, T/C [17]: 90.2%
- viability, T/C [18]: 82.5%
- viability, T/C [19]: 72.9%
- viability, T/C [20]: 50.2%
- viability, T/C [33]: 44.7%
- viability, T/C [34]: 36.2%
- viability, T/C [21]: 91.1%
- viability, T/C [22]: 85.5%
- viability, T/C [23]: 76.6%
- viability, T/C [24]: 51.7%
- viability, T/C [35]: 47.9%
- viability, T/C [36]: 34.4%
